This note sets out measurements from patent publication US10722501B2 (BAYER AKTIENGESELLSCHAFT, priority 2016, dated 2020).

The assay addresses T1, recombinant full-length human prolyl endopeptidase (PREP) (Homo sapiens, UniProt P48147).
T1 construct: To recombinant full-length human prolyl endopeptidase (PREP, R&D-Systems, 4308-SE); purchased R&D-Systems 4308-SE
T1 sequence (P48147 1-710): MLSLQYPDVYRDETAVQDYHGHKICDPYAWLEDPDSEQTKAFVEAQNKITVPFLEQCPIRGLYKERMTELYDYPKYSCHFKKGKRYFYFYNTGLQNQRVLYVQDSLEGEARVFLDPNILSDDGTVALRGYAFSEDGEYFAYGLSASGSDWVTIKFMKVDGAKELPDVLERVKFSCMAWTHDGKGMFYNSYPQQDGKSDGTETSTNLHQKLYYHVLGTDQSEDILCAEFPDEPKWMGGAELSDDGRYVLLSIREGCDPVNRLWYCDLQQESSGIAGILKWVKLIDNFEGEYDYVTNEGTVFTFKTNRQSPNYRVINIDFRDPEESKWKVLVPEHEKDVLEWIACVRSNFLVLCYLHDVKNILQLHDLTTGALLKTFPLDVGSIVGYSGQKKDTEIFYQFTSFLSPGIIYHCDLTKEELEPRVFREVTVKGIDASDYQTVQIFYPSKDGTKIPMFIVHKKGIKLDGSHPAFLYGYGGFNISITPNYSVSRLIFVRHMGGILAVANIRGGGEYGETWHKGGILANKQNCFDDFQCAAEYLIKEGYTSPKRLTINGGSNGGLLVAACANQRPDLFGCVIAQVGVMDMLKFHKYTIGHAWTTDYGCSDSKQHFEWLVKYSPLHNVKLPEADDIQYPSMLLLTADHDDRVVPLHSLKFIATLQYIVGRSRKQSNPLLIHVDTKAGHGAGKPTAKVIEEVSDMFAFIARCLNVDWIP
Put plainly: Biochemical human prolyl endopeptidase (PREP) assay with fluorescently labelled substrate. Particulars: substrate Z-Gly-Pro-AMC 50 μM, 32° C., 60 min; some as mean values from multiple independent determinations. The gist of the method: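 Initial rates of fluorescence increase from 50 μM Z-Gly-Pro-AMC cleavage (ex 360/em 465 nm, 60 min, 32° C) give percent PREP activity versus no-compound control, and IC50 is interpolated. Enzyme used at 0.4 nM (final, example) in Tris pH 7.5 with EDTA, GSH, BSA and Brij-35; compounds span 1 nM to 30 μM.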
The term IC50 denotes the concentration that gives 50% inhibition. On to `Cc1ccc(C2(Cn3nc4n(c3=O)[C@H](C(=O)N3CC[C@H](O)C3)CCC4)CC2)cc1` [Example 525, (5S)-5-{[(3S)-3-Hydroxypyrrolidin-1-yl]carbonyl}-2-{[1-(4-methylphenyl)cyclopropyl]methyl}-5,6,7,8-tetrahydro[1,2,4]triazolo[4,3-a]pyridin-3(2H)-one], for which the half-inhibitory concentration (IC50) was found to be 15.2 nM.
Take `Cc1ccc(C2(Cn3nc4n(c3=O)[C@H](C(=O)N3CC[C@H](F)C3)CCC4)CC2)cc1` [Example 526, (5S)-5-{[(3S)-3-Fluoropyrrolidin-1-yl]carbonyl}-2-{[1-(4-methylphenyl)cyclopropyl]methyl}-5,6,7,8-tetrahydro[1,2,4]triazolo[4,3-a]pyridin-3(2H)-one]: the IC50 was determined as 0.38 nM.
On to `O=C([C@@H]1CCCc2nn(CC3(c4ccc(C(F)(F)F)cc4)CC3)c(=O)n21)N1CC(F)C1` [Example 527, (5S)-5-[(3-Fluoroazetidin-1-yl)carbonyl]-2-({1-[4-(trifluoromethyl)phenyl]cyclopropyl}methyl)-5,6,7,8-tetrahydro[1,2,4]triazolo[4,3-a]pyridin-3(2H)-one], for which the IC50 was found to be 1.2 nM.
For `COc1ccc(C2(Cn3nc4n(c3=O)[C@H](C(=O)N3CC[C@H](F)C3)CCC4)CC2)cc1` [Example 528, (5S)-5-{[(3S)-3-Fluoropyrrolidin-1-yl]carbonyl}-2-{[1-(4-methoxyphenyl)cyclopropyl]methyl}-5,6,7,8-tetrahydro[1,2,4]triazolo[4,3-a]pyridin-3(2H)-one] the value was 0.72 nM; for `COc1ccc(C2(Cn3nc4n(c3=O)[C@H](C(=O)N3CCC(F)(F)C3)CCC4)CC2)cc1` [Example 529, (5S)-5-[(3,3-Difluoropyrrolidin-1-yl)carbonyl]-2-{[1-(4-methoxyphenyl)cyclopropyl]methyl}-5,6,7,8-tetrahydro[1,2,4]triazolo[4,3-a]pyridin-3(2H)-one], 0.96 nM; for `O=C([C@@H]1CCCc2nn(CC3(c4ccc(F)cc4F)CC3)c(=O)n21)N1CCCC1` [Example 530, (5S)-2-{[1-(2,4-Difluorophenyl)cyclopropyl]methyl}-5-(pyrrolidin-1-ylcarbonyl)-5,6,7,8-tetrahydro[1,2,4]triazolo[4,3-a]pyridin-3(2H)-one], 0.22 nM.
With `O=C([C@@H]1CCCc2nn(Cc3ccc(C(F)(F)F)cn3)c(=O)n21)N1CCCC1` [Example 531, (5S)-5-(Pyrrolidin-1-ylcarbonyl)-2-{[5-(trifluoromethyl)pyridin-2-yl]methyl}-5,6,7,8-tetrahydro[1,2,4]triazolo[4,3-a]pyridin-3(2H)-one], the concentration for half-maximal inhibition (IC50) was 3 nM.
In the case of `COc1ccc(Cn2nc3n(c2=O)[C@H](C(=O)N2CC(F)(F)C2)CCC3)nc1` [Example 532, (5S)-5-[(3,3-Difluoroazetidin-1-yl)carbonyl]-2-[(5-methoxypyridin-2-yl)methyl]-5,6,7,8-tetrahydro[1,2,4]triazolo[4,3-a]pyridin-3(2H)-one], the IC50 amounted to 34 nM.
For `O=C([C@@H]1CCCc2nn(Cc3nccc(C(F)(F)F)c3Cl)c(=O)n21)N1CCCC1` [Example 533, (5S)-2-{[3-Chloro-4-(trifluoromethyl)pyridin-2-yl]methyl}-5-(pyrrolidin-1-ylcarbonyl)-5,6,7,8-tetrahydro[1,2,4]triazolo[4,3-a]pyridin-3(2H)-one] the value was 0.44 nM; for `Cn1nc(Cn2nc3n(c2=O)[C@H](C(=O)N2CC(F)C2)CCC3)c2cccnc21` [Example 534, (5S)-5-[(3-Fluoroazetidin-1-yl)carbonyl]-2-[(1-methyl-1H-pyrazolo[3,4-b]pyridin-3-yl)methyl]-5,6,7,8-tetrahydro[1,2,4]triazolo[4,3-a]pyridin-3(2H)-one], 1.23 nM.
For `O=C([C@@H]1CCCc2nn(Cc3cncc(C(F)(F)F)c3)c(=O)n21)N1CCCC1` [Example 535, (5S)-5-(Pyrrolidin-1-ylcarbonyl)-2-{[5-(trifluoromethyl)pyridin-3-yl]methyl}-5,6,7,8-tetrahydro[1,2,4]triazolo[4,3-a]pyridin-3(2H)-one] the value was 5.1 nM; for `O=C([C@@H]1CCCc2nn(Cc3ccc(F)nc3)c(=O)n21)N1CCC(F)(F)C1` [Example 536, (5S)-5-[(3,3-Difluoropyrrolidin-1-yl)carbonyl]-2-[(6-fluoropyridin-3-yl)methyl]-5,6,7,8-tetrahydro[1,2,4]triazolo[4,3-a]pyridin-3(2H)-one], 9.6 nM.
Turning to `O=C([C@@H]1CCCc2nn(Cc3ccc(F)nc3)c(=O)n21)N1CC(F)(F)C1` [Example 537, (5S)-5-[(3,3-Difluoroazetidin-1-yl)carbonyl]-2-[(6-fluoropyridin-3-yl)methyl]-5,6,7,8-tetrahydro[1,2,4]triazolo[4,3-a]pyridin-3(2H)-one], the IC50 was found to be 8.8 nM.
For `COc1ccc(Cn2nc3n(c2=O)[C@H](C(=O)N2CCCC2)CCC3)cn1` [Example 538, (5S)-2-[(6-Methoxypyridin-3-yl)methyl]-5-(pyrrolidin-1-ylcarbonyl)-5,6,7,8-tetrahydro[1,2,4]triazolo[4,3-a]pyridin-3(2H)-one] the value was 0.82 nM; for `O=C([C@@H]1CCCc2nn(Cc3cc(C(F)(F)F)nc4ccccc34)c(=O)n21)N1CC[C@H](F)C1` [Example 539, (5S)-5-{[(3S)-3-Fluoropyrrolidin-1-yl]carbonyl}-2-{[2-(trifluoromethyl)quinolin-4-yl]methyl}-5,6,7,8-tetrahydro[1,2,4]triazolo[4,3-a]pyridin-3(2H)-one], 0.85 nM; for `O=C([C@@H]1CCCc2nn(Cc3nc(C(F)(F)F)no3)c(=O)n21)N1CC(F)C1` [Example 540, (5S)-5-[(3-Fluoroazetidin-1-yl)carbonyl]-2-{[3-(trifluoromethyl)-1,2,4-oxadiazol-5-yl]methyl}-5,6,7,8-tetrahydro[1,2,4]triazolo[4,3-a]pyridin-3(2H)-one], 27 nM.
With `O=C([C@@H]1CCCc2nn(Cc3nnc(C(F)(F)F)o3)c(=O)n21)N1CCC(F)(F)C1` [Example 541, (5S)-5-[(3,3-Difluoropyrrolidin-1-yl)carbonyl]-2-{[5-(trifluoromethyl)-1,3,4-oxadiazol-2-yl]methyl}-5,6,7,8-tetrahydro[1,2,4]triazolo[4,3-a]pyridin-3(2H)-one], the IC50 was determined as 63 nM.
For `O=C([C@@H]1CCCc2nn(Cc3nnc(C(F)(F)F)o3)c(=O)n21)N1CC(F)C1` [Example 542, (5S)-5-[(3-Fluoroazetidin-1-yl)carbonyl]-2-{[5-(trifluoromethyl)-1,3,4-oxadiazol-2-yl]methyl}-5,6,7,8-tetrahydro[1,2,4]triazolo[4,3-a]pyridin-3(2H)-one] the value was 94 nM; for `O=C([C@@H]1CCCc2nn(Cc3nnc(C(F)(F)F)o3)c(=O)n21)N1C[C@@H](F)[C@@H](F)C1` [Example 543, (5S)-5-{[(3R,4S)-3,4-Difluoropyrrolidin-1-yl]carbonyl}-2-{[5-(trifluoromethyl)-1,3,4-oxadiazol-2-yl]methyl}-5,6,7,8-tetrahydro[1,2,4]triazolo[4,3-a]pyridin-3(2H)-one], 33.5 nM; for `O=C([C@@H]1CCCc2nn(Cc3nnc(C(F)(F)F)o3)c(=O)n21)N1CC[C@H](F)C1` [Example 544, (5S)-5-{[(3S)-3-Fluoropyrrolidin-1-yl]carbonyl}-2-{[5-(trifluoromethyl)-1,3,4-oxadiazol-2-yl]methyl}-5,6,7,8-tetrahydro[1,2,4]triazolo[4,3-a]pyridin-3(2H)-one], 4.4 nM.
As for `O=C([C@@H]1CCCc2nn(Cc3cnc(C(F)(F)F)c(Cl)c3)c(=O)n21)N1CCCC1` [Example 545, (5S)-2-{[5-Chloro-6-(trifluoromethyl)pyridin-3-yl]methyl}-5-(pyrrolidin-1-ylcarbonyl)-5,6,7,8-tetrahydro[1,2,4]triazolo[4,3-a]pyridin-3(2H)-one], the IC50 turned out to be 0.67 nM.
On to `O=C([C@@H]1CCCc2nn(Cc3ccc(F)cc3)c(=O)n21)N1CC(F)C1` [Example 546, (5S)-5-[(3-Fluoroazetidin-1-yl)carbonyl]-2-(4-fluorobenzyl)-5,6,7,8-tetrahydro[1,2,4]triazolo[4,3-a]pyridin-3(2H)-one], for which the IC50 turned out to be 0.57 nM.
Under `O=C([C@@H]1CCCc2nn(Cc3ncc(Cl)cc3F)c(=O)n21)N1CC(F)C(F)C1` (stereo partly drawn) [Example 549] stands 36 nM; under `O=C([C@@H]1CCC(F)(F)c2nn(Cc3ccc(Cl)cn3)c(=O)n21)N1CC[C@H](F)C1` [Example 555, (5S)-2-[(5-Chloropyridin-2-yl)methyl]-8,8-difluoro-5-{[(3S)-3-fluoropyrrolidin-1-yl]carbonyl}-5,6,7,8-tetrahydro[1,2,4]triazolo[4,3-a]pyridin-3(2H)-one], 0.54 nM.
